Assays:
[1] = biological target: T1, human DNA topoisomerase IIα (Homo sapiens, UniProt P11388); test: topo IIα-mediated kDNA decatenation and supercoiled pBR322 relaxation gel assays; HTS relaxation assay; cleavage assay (not a poison); assay type: biochemical
T1 construct: gene TOP2A

[2] = biological target: T1, human DNA topoisomerase IIα; test: topo IIα cleavage assay (linear plasmid accumulation), HTS relaxation and decatenation assays; assay type: biochemical

T1 sequence (P11388 whole entry): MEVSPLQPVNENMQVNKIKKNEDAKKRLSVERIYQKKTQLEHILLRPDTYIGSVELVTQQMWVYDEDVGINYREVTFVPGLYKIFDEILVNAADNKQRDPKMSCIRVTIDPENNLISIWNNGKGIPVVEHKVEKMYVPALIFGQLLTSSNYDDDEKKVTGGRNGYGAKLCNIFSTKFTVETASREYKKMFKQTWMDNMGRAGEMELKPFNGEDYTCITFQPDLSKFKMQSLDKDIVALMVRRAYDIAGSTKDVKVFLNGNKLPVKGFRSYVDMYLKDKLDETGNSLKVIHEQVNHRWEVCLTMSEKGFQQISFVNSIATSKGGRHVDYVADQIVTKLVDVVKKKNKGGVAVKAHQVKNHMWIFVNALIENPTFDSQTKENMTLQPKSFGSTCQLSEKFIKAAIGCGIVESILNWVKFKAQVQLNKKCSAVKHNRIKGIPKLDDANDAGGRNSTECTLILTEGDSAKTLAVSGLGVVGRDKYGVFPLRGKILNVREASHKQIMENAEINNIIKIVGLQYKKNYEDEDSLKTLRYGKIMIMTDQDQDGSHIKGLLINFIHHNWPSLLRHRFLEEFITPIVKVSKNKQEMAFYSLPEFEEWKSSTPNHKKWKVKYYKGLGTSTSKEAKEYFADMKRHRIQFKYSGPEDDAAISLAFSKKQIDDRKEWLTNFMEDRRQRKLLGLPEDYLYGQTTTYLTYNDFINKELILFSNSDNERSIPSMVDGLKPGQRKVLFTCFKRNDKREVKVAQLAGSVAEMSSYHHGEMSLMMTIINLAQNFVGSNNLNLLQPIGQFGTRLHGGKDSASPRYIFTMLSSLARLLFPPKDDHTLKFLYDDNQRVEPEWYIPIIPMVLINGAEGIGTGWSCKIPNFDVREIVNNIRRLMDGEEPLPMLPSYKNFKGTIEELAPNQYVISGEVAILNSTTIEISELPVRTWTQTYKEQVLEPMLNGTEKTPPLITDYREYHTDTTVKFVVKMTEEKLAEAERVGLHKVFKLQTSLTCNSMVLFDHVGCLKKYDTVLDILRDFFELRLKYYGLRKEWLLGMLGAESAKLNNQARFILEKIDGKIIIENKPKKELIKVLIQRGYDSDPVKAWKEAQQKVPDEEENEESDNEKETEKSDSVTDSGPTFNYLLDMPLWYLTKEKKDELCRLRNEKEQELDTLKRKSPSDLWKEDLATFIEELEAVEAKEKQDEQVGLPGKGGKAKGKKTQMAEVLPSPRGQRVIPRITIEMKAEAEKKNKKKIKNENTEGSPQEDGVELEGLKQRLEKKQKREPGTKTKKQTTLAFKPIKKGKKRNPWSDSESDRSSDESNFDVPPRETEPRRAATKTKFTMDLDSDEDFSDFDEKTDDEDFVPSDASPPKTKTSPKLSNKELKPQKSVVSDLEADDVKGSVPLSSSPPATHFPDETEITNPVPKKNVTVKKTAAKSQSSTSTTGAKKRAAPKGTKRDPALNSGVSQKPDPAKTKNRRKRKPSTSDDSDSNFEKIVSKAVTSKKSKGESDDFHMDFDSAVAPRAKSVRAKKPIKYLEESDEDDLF

Structure (SMILES) | inhibition at 50 µM [1] [%] | inhibition at 50 µM [2] [%]
Oc1ccccc1C=NNC(=S)NN=Cc1ccccc1O [compound 2, 1,5-bis(salicylidene)thiocarbohydrazide] | 56 | –
COc1cc([C@@H]2c3cc4c(cc3[C@@H](O[C@@H]3O[C@@H]5CO[C@@H](C)O[C@H]5[C@H](O)[C@H]3O)[C@H]3COC(=O)[C@H]23)OCO4)cc(OC)c1O [etoposide] | – | 70

Source: publication PMC10054454, “Phenotypic Discovery of Thiocarbohydrazone with Anticancer Properties and Catalytic Inhibition of Human DNA Topoisomerase IIα” (Pharmaceuticals, 2023)
